{"source": "ChEMBL document CHEMBL1201862", "about": "“PubChem BioAssay data set” (2004)", "key": {"SUMO-activating enzyme [1]": {"target": "T1, SUMO-activating enzyme (Homo sapiens, UniProt Q9UBT2)", "T1 sequence (Q9UBE0 whole entry)": "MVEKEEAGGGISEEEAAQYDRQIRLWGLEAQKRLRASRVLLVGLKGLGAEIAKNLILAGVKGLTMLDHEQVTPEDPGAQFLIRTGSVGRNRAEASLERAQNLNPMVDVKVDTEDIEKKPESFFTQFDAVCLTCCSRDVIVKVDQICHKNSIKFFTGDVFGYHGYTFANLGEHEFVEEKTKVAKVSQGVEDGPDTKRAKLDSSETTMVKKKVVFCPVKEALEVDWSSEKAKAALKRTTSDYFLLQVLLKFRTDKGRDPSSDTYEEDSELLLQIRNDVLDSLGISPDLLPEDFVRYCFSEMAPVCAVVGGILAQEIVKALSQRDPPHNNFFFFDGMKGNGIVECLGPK", "T1 sequence (Q9UBT2 whole entry)": "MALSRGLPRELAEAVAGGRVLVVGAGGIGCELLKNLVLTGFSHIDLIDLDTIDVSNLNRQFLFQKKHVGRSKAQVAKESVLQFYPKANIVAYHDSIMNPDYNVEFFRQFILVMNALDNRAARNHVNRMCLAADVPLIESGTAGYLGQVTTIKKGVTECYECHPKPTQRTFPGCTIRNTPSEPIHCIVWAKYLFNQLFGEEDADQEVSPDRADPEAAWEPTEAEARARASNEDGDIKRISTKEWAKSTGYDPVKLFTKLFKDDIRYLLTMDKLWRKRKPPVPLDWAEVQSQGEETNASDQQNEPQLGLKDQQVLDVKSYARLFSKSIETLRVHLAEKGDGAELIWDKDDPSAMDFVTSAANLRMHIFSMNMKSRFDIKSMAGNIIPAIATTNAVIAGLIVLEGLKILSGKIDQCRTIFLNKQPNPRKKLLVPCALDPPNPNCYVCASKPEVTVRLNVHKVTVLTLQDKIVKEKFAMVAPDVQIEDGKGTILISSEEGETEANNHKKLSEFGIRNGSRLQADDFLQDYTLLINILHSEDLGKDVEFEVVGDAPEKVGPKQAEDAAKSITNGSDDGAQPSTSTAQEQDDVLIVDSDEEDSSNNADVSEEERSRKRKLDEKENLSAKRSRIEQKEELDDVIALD", "assay": "blockers of UBC9-mediated SUMO conjugation – biochemical, AlphaScreen, SUMOylation inhibitor project, confirmation (AID 2018)", "assay_type": "functional"}, "ORF 73": {"target": "T2, ORF 73 (Human herpesvirus 8, UniProt O40947)", "T2 sequence (O40947 whole entry)": "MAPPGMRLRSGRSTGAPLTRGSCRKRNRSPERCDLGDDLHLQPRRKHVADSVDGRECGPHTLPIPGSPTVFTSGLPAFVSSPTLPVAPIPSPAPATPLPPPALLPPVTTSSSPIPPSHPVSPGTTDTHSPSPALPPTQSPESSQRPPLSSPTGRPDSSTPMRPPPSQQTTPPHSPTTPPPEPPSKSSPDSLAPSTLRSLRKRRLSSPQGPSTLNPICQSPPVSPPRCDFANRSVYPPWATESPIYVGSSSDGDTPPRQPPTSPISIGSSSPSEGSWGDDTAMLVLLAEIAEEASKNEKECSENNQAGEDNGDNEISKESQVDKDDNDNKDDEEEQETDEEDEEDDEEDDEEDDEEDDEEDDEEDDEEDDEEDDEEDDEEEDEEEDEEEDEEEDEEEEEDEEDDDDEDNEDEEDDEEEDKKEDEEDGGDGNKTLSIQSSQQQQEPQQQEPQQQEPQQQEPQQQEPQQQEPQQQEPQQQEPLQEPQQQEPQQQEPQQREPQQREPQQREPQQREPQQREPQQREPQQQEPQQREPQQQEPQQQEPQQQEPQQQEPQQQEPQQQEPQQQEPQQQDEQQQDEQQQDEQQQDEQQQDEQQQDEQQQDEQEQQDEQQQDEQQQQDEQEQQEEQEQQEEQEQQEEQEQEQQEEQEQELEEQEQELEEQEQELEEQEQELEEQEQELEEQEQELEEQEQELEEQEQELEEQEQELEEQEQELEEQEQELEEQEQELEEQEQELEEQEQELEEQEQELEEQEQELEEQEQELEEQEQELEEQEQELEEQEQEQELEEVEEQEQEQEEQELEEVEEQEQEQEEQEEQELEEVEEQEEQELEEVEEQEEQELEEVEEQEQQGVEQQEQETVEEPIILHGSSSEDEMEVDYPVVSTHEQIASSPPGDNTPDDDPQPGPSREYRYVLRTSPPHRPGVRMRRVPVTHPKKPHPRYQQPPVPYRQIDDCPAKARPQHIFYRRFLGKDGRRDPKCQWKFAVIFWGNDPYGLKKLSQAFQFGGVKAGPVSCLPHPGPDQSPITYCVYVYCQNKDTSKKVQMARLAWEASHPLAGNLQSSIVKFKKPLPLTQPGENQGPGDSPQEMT", "assay": "KSHV LANA DNA-binding disruption – biochemical, fluorescence polarization, cherry-picked samples, dose response (AID 504725);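 note: fluorescence polarization of a labeled DNA duplex reporting LANA DNA binding; potency is for inhibitors that block LANA binding to the DNA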", "design": "species or system Human gammaherpesvirus 8"}, "SUMO-activating enzyme [2]": {"target": "T1, SUMO-activating enzyme", "assay": "blockers of SAE1/SAE2–UBC9 SUMO transfer – biochemical, HTRF, uHTS, primary screen (AID 2006)", "assay_type": "protein-complex assay"}, "[3]": {"target": "Polyadenylate-binding protein 1 (Homo sapiens, UniProt P11940)", "sequence (P11940 whole entry)": "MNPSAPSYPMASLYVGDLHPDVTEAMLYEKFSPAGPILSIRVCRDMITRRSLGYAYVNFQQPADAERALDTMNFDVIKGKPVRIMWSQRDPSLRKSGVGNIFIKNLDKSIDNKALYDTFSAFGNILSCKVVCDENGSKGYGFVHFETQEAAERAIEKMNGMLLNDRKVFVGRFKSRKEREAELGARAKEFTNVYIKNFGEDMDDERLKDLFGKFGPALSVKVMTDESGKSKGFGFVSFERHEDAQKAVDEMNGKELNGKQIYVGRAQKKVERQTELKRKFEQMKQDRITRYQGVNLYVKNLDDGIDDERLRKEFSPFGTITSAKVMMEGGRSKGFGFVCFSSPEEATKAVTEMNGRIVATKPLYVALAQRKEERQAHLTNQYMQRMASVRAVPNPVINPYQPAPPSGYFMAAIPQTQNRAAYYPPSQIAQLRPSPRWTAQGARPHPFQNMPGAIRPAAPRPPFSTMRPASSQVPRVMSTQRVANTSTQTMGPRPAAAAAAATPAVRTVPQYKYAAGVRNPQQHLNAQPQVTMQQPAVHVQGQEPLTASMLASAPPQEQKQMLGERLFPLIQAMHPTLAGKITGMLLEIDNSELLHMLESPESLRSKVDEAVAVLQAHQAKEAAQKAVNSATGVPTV", "assay": "blockers of PABP interaction with poly(A) – biochemical, fluorescence polarization, […] (AID 2014)"}, "[4]": {"target": "Eukaryotic translation initiation factor 4H (Homo sapiens, UniProt Q15056)", "assay": "eIF4H binding inhibition – biochemical, uHTS, fluorescence polarization, translation initiation inhibitor project, primary screen (AID 2012)"}, "[5]": {"assay": "A cytotoxicity screen of small molecule inhibitors of the PhoP region in Salmonella typhi identified in the primary screen. [Related pubchem assays: 1850, 1864, 1985 ]", "assay_type": "functional"}, "Leucine aminopeptidase": {"target": "T3, Leucine aminopeptidase (Plasmodium falciparum 3D7, UniProt Q8IL11)", "T3 sequence (Q8IL11 whole entry)": "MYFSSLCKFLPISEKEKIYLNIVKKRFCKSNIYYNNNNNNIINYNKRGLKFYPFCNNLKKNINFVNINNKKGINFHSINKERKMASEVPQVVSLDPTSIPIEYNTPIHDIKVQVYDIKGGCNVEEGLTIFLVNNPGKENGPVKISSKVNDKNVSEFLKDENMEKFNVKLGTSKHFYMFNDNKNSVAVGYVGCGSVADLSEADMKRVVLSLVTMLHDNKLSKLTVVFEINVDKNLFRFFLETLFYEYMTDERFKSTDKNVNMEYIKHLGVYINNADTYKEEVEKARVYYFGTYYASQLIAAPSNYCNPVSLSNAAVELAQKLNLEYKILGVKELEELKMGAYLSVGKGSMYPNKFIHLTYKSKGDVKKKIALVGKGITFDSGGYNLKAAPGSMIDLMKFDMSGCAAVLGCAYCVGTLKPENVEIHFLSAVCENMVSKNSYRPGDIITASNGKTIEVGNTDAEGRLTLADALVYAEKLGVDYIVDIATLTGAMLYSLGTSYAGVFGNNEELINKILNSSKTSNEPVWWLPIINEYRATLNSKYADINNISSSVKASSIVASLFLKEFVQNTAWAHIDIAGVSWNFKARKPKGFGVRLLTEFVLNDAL", "assay": "P. falciparum M17LAP inhibitors, primary screen, biochemical, fluorogenic H-Leu-NHMec substrate, 1536-well (AID 1619)", "assay_type": "functional"}, "Aspartyl aminopeptidase": {"target": "T4, Aspartyl aminopeptidase (Plasmodium falciparum 3D7, UniProt Q8I2J3)", "T4 sequence (Q8I2J3 whole entry)": "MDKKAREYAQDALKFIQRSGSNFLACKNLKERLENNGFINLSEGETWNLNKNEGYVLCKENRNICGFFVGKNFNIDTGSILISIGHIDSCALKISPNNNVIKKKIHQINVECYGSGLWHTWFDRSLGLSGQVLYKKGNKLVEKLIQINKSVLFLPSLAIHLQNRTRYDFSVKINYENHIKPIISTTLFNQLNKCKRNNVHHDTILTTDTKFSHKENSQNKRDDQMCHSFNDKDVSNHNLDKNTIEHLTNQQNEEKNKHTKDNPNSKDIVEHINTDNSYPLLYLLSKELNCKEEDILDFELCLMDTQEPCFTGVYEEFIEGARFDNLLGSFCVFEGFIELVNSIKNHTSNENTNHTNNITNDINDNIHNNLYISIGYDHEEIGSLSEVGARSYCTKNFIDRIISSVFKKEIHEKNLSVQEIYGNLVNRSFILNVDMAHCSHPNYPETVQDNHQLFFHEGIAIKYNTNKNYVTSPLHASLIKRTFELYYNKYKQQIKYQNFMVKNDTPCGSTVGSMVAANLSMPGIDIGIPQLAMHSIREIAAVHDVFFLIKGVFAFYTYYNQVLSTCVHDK", "assay": "Counterscreen for inhibitors of M1 and M17 aminopeptidases: QFRET-based biochemical high throughput dose response assay for inhibitors of the Plasmodium falciparum M18 Aspartyl Aminopeptidase (PFM18AAP). [Related PubChem assays: 1619 (Screening assay (M17LAP inhibitors).), 1445 (Screening assay (M1AAP inhibitors).)]"}, "Procathepsin L": {"target": "Procathepsin L (Homo sapiens, UniProt P07711)", "sequence (P07711 whole entry)": "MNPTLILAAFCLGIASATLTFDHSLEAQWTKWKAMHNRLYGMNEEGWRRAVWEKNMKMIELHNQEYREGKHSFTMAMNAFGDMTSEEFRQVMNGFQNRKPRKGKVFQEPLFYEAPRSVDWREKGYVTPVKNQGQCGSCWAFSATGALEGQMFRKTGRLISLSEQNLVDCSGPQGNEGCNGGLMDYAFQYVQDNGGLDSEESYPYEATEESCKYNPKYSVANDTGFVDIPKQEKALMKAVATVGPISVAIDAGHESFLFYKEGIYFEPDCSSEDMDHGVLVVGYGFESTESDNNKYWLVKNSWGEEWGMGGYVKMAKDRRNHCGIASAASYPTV", "assay": "CTSL1 protease inhibition – biochemical, QFRET, 1536-well, counter-screen for M1/M17 aminopeptidase inhibitor project, dose response (AID 2214)"}, "HEK293": {"system": "HEK293", "assay": "EBV LMP1 TES2 canonical NF-kB signalling blockers – cell-based, HEK293, luciferase, cherry-pick, dose response (AID 588343)", "assay_type": "functional", "details": "Homo sapiens"}, "[6]": {"target": "Luciferin 4-monooxygenase (Photinus pyralis, UniProt P08659)", "sequence (P08659 whole entry)": "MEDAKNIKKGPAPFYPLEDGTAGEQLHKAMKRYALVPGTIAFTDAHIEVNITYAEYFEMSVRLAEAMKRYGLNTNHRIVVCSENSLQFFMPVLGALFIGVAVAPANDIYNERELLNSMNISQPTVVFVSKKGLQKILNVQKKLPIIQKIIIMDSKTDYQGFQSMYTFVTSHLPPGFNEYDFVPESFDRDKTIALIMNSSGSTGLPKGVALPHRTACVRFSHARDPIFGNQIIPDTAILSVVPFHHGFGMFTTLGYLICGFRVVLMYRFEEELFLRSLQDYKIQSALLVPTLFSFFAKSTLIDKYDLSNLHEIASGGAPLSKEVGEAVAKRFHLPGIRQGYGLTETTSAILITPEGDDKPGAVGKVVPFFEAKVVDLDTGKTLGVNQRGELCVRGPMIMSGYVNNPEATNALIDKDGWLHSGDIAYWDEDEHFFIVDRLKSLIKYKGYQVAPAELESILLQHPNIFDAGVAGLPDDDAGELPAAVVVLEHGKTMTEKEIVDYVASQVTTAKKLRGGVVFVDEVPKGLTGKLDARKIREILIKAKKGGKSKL", "assay": "Counter Screen for Luciferase-based Assay Positives. [Related pubchem assays: 620, 618, 411 ]"}, "HT-1080": {"system": "HT-1080", "assay": "HT1080 cell viability loss – fluorescence readout (AID 620)", "assay_type": "functional, cell-based", "details": "Homo sapiens"}, "[7]": {"assay": "NIH3T3 cell viability loss – ATP luminescence, mouse fibroblasts, counter-screen, dose response (AID 2010);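 note: cells exposed to compound for about 90 hours before reading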", "assay_type": "functional, cell-based"}, "[8]": {"assay": "Trypanosoma cruzi growth suppression in host cells – NIH3T3 host cells, beta-gal luminescence, confirmation (AID 2044);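 note: intracellular parasites grown in NIH/3T3 mouse fibroblasts as host cells; luminescent beta-galactosidase reporter signal from transgenic T. cruzi replicating inside host cells; inhibitors lower the luminescence signal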", "assay_type": "functional, cell-based"}, "[9]": {"target": "T5, Acyl-homoserine lactone acylase PvdQ (Pseudomonas aeruginosa (strain LESB58), UniProt Q9I194)", "T5 sequence (Q9I194 whole entry)": "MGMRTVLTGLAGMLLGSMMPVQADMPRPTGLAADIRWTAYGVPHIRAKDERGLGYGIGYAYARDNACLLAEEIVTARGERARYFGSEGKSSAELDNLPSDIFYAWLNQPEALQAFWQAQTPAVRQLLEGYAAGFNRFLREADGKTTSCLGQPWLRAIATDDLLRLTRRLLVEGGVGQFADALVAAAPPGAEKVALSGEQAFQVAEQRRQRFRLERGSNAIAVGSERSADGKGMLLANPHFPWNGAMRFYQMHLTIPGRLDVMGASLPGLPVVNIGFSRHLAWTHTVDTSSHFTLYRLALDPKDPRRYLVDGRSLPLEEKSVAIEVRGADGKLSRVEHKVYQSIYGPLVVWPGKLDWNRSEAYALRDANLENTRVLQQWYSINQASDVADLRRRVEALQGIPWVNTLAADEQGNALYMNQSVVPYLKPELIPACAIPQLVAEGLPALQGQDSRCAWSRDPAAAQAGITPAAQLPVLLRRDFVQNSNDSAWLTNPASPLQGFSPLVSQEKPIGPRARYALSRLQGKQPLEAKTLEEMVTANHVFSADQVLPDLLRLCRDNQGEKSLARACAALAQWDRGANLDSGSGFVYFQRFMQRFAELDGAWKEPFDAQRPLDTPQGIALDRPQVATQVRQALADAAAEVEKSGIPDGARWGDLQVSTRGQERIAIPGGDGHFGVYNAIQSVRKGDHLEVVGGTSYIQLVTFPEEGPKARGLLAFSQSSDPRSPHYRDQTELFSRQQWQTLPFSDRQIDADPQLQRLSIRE", "assay": "PvdQ acylase enzyme activity blockers – biochemical, fluorescence, plate reader and imaging, cherry-picks, dose response (AID 493231)"}, "[10]": {"target": "T6, Ubiquitin-conjugating enzyme E2 N (Homo sapiens, UniProt P61088)", "T6 sequence (P61088 whole entry)": "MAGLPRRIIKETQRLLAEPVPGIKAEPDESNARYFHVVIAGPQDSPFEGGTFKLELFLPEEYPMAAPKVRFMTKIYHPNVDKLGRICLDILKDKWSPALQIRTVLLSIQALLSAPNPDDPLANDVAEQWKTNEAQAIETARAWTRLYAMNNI", "assay_type": "functional"}}, "note": "Calls of active or inactive are those of the source."}
{"smiles": "COc1cc2c(cc1OC)-c1cc3ccc4c(c3c[n+]1CC2)OCO4", "values": [{"measurement": "IC50", "setting": "SUMO-activating enzyme [1]", "result": "4.17 µM (active)"}, {"measurement": "AC50", "setting": "ORF 73", "result": "20.5 µM (active)"}, {"measurement": "IC50", "setting": "SUMO-activating enzyme [2]", "result": "8.68 µM (active)"}]}
{"smiles": "O=C(NC(Cc1ccccc1)C(=O)Oc1ccc2c(C(F)(F)F)cc(=O)oc2c1)OCc1ccccc1", "note": "(stereo unspecified)", "values": [{"measurement": "IC50", "setting": "[3]", "result": "> 100 µM (inactive)"}, {"measurement": "IC50", "setting": "[4]", "result": "> 100 µM (inactive)"}]}
{"smiles": "CNc1nc(SC)n(C)c(=O)c1N=O", "values": [{"measurement": "EC50", "setting": "[5]", "result": "> 50 µM (active)"}]}
{"smiles": "COC(=O)c1c(-c2ccc(C)cc2)csc1NC(=O)C1CC=CCC1C(=O)O", "note": "(stereo unspecified)", "values": [{"measurement": "IC50", "setting": "Leucine aminopeptidase", "result": "1.2 µM (active)"}, {"measurement": "IC50", "setting": "Aspartyl aminopeptidase", "result": "> 73.5 µM (not active)"}, {"measurement": "IC50", "setting": "Procathepsin L", "result": "> 59.6 µM (not active)"}]}
{"smiles": "c1ccc(OCCSc2nnc3sc4ccccc4n23)cc1", "values": [{"measurement": "AC50", "setting": "HEK293", "result": "1.29 µM (active)"}, {"measurement": "EC50", "setting": "[6]", "result": "> 100 µM (not active)"}, {"measurement": "EC50", "setting": "HT-1080", "result": "14.8 µM (active)"}]}
{"smiles": "O=C(NCC1CC1)c1cc([N+](=O)[O-])cc([N+](=O)[O-])c1", "values": [{"measurement": "EC50", "setting": "[7]", "result": "> 60 µM (not active)"}, {"measurement": "EC50", "setting": "[8]", "result": "0.622 µM (active)"}, {"measurement": "AC50", "setting": "[9]", "result": "3.55 µM (active)"}]}
{"smiles": "O=S(=O)(c1ccc(NC(=S)NN=C(C2CC2)C2CC2)cc1)N1CCOCC1", "values": [{"measurement": "IC50", "setting": "[10]", "result": "> 20 µM (inactive)"}]}
